Experimental data taken from patent US20100069341A1, “TETRAHYDRO-PYRANOPYRAZOLE CANNABINOID MODULATORS” (priority 2005, published 2010).
Like-named read-outs stand apart in the source and are kept apart here.

What was measured:
[1] = target: T1, Cannabinoid CB1 Receptor (Homo sapiens, UniProt P21554); assay: Binding assay, cannabinoid CB1 receptor ([3H]-CP-55,940 displacement, SK-N-MC cell membranes); conditions: for Cannabinoid CB1 Receptor Binding, percent inhibition / inhibition at 0.2 µM: test concentration of 0.2 μM; for inhibition at 0.2 µM: read-out: Cannabinoid CB1 Receptor Binding, percent inhibition
T1 construct: expressed in transfected cells; semi-purified membrane pellet
T1 sequence (P21554 whole entry): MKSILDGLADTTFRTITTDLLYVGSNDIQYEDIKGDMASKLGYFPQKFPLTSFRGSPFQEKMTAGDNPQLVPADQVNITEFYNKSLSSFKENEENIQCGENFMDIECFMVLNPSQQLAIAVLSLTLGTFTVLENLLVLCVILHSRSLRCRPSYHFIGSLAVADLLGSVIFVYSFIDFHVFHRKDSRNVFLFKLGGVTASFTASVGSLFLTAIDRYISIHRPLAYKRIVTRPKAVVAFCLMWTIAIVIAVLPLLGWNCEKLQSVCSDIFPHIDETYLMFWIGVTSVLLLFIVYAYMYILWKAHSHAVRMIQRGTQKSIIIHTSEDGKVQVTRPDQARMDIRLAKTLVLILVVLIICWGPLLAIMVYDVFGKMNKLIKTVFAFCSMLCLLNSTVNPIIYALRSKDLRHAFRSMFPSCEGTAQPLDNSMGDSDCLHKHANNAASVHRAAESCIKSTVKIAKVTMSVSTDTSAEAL

[2] = target: T2, Cannabinoid CB2 Receptor (Homo sapiens, UniProt P34972); assay: Binding assay, cannabinoid CB2 receptor ([3H]-CP-55,940 displacement, SK-N-MC cell membranes); conditions: test concentration of 0.2 μM, human CB2 in SK-N-MC membranes; for inhibition at 0.2 µM: read-out: Cannabinoid CB2 Receptor Binding, percent inhibition
T2 construct: expressed in transfected cells; semi-purified membrane pellet
T2 sequence (P34972 whole entry): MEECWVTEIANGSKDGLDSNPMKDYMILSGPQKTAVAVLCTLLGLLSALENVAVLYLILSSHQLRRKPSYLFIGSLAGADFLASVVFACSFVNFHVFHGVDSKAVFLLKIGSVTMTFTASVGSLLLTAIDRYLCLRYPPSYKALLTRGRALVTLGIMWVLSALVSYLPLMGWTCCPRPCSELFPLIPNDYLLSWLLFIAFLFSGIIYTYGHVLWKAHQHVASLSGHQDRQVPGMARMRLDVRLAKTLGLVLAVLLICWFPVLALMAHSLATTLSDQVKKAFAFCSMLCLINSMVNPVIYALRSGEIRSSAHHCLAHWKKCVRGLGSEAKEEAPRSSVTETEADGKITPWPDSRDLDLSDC
Method in brief: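 Membranes from SK-N-MC cells stably expressing human CB2 were incubated 90 min at 30 °C with 0.2 nM [3H]-CP-55,940 in Tris buffer, pH 7.5, with BSA; 10 uM WIN 55,212 defined non-specific binding. Filter-bound counts gave IC50 by linear regression, or % inhibition at 0.2 μM.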

| Compound | Cannabinoid CB1 Receptor Binding, percent inhibition ([1]; human CB1 in SK-N-MC membranes) [%] | Cannabinoid CB2 Receptor Binding, percent inhibition [2] [%] | IC50 [1] [nM] | inhibition at 0.2 µM ([1]; human CB1 in SK-N-MC membranes) [%] | inhibition at 0.2 µM [2] [%] | IC50 ([1]; human CB1 in SK-N-MC membranes, radioligand CP-55,940 0.2 nM, calculated by linear regression, read-out: Cannabinoid CB1 Receptor Binding, IC50 binding value) [nM] |
| --- | --- | --- | --- | --- | --- | --- |
| azepan-1-yl-[1-(2,4-dichloro-phenyl)-7-(4-fluoro-benzyl)-1,4,6,7-tetrahydro-pyrano[4,3-c]pyrazol-3-yl]-methanone [Cpd 25] | 50 | 0 | – | – | – | – |
| O=C(NN1CCCCCC1)c1nn(-c2ccc(Cl)cc2Cl)c2c1COC/C2=C\c1ccsc1 [Cpd 44, (7Z)-1-(2,4-dichloro-phenyl)-7-thiophen-3-ylmethylene-1,4,6,7-tetrahydro-pyrano[4,3-c]pyrazole-3-carboxylic acid azepan-1-ylamide] | – | – | 20 | 86 | 16 | – |
| O=C(c1nn(-c2ccc(Cl)cc2)c2c1COC/C2=C\c1ccc(F)cc1)N1CCC[C@H]1CO [Cpd 19, (7Z)-[1-(4-chloro-phenyl)-7-(4-fluoro-benzylidene)-1,4,6,7-tetrahydro-pyrano[4,3-c]pyrazol-3-yl]-[(2S)-2-hydroxymethyl-pyrrolidin-1-yl]-methanone] | – | – | – | 51 | 13 | – |
| O=C(NN1CC2CCCC2C1)c1nn(-c2ccc(Cl)cc2Cl)c2c1COC/C2=C\c1ccc(Cl)s1 (stereo not drawn) [Cpd 56, (7Z)-7-(5-chloro-thiophen-2-ylmethylene)-1-(2,4-dichloro-phenyl)-1,4,6,7-tetrahydro-pyrano[4,3-c]pyrazole-3-carboxylic acid (hexahydro-cyclopenta[c]pyrrol-2-yl)-amide] | – | – | 40 | 74 | 0 | – |
| (7Z)-azepan-1-yl-[1-(2,4-dichloro-phenyl)-7-(4-fluoro-benzylidene)-1,4,6,7-tetrahydro-pyrano[4,3-c]pyrazol-3-yl]-methanone [Cpd 28] | 88 | 10 | – | – | – | 9 |
| CN(C(=O)c1nn(-c2ccc(Cl)cc2)c2c1COC/C2=C\c1ccc(F)cc1)c1ccccc1 [Cpd 14, (7Z)-1-(4-chloro-phenyl)-7-(4-fluoro-benzylidene)-1,4,6,7-tetrahydro-pyrano[4,3-c]pyrazole-3-carboxylic acid methyl-phenyl-amide] | – | – | – | 49 | 7 | – |
| O=C(NN1CCCC1)c1nn(-c2ccc(Cl)cc2Cl)c2c1COC/C2=C\c1ccc(F)cc1 [Cpd 9, (7Z)-1-(2,4-dichloro-phenyl)-7-(4-fluoro-benzylidene)-1,4,6,7-tetrahydro-pyrano[4,3-c]pyrazole-3-carboxylic acid pyrrolidin-1-ylamide] | – | – | – | 58 | 0 | – |
| CC1CCCC(C)N1NC(=O)c1nn(-c2ccc(Cl)cc2Cl)c2c1COC/C2=C\c1ccc(Cl)o1 (stereo not drawn) [Cpd 68, (7Z)-7-(5-chloro-furan-2-ylmethylene)-1-(2,4-dichloro-phenyl)-1,4,6,7-tetrahydro-pyrano[4,3-c]pyrazole-3-carboxylic acid (2,6-dimethyl-piperidin-1-yl)-amide] | – | – | – | 38 | 22 | – |
| O=C(c1nn(-c2ccc(Cl)cc2Cl)c2c1COC/C2=C\c1ccc(F)cc1)N1CCC[C@@H]1CO [Cpd 20, (7Z)-[1-(2,4-dichloro-phenyl)-7-(4-fluoro-benzylidene)-1,4,6,7-tetrahydro-pyrano[4,3-c]pyrazol-3-yl]-[(2R)-2-hydroxymethyl-pyrrolidin-1-yl]-methanone] | – | – | – | 27 | 18 | – |
| O=C(NN1CCCCCC1)c1nn(-c2ccc(Cl)cc2Cl)c2c1COC/C2=C\c1ccc(Cl)s1 [Cpd 53, (7Z)-7-(5-chloro-thiophen-2-ylmethylene)-1-(2,4-dichloro-phenyl)-1,4,6,7-tetrahydro-pyrano[4,3-c]pyrazole-3-carboxylic acid azepan-1-ylamide] | – | – | 10 | 83 | 10 | – |
